# Experimental data published in ChEMBL document CHEMBL4043200, “Synthesis and biological evaluation of 8-aryl-2-morpholino-7-O-substituted benzo[e][1,3]oxazin-4-ones against DNA-PK, PI3K, PDE3A enzymes and platelet aggregation” (Bioorg Med Chem, 2017).
# Tests used:
# [1] = target: DNA-dependent protein kinase catalytic subunit (Homo sapiens, UniProt P78527); assay: Inhibition of human DNA-PK catalytic subunit at 10 uM using DNA and [EPPLSQEAFADLWKK] peptide substrate by HTRF assay
# [2] = target: T1, Phosphatidylinositol 4,5-bisphosphate 3-kinase catalytic subunit delta isoform (Homo sapiens) (UniProt O00329); assay: Inhibition of wild type PI3K-delta (unknown origin) assessed as decrease in ATP consumption at 10 uM using phosphotidylinositol bisphosphate and ATP measured after 60 mins by Kinase-Glo reagent based luminescence assay
# T1 sequence (whole entry): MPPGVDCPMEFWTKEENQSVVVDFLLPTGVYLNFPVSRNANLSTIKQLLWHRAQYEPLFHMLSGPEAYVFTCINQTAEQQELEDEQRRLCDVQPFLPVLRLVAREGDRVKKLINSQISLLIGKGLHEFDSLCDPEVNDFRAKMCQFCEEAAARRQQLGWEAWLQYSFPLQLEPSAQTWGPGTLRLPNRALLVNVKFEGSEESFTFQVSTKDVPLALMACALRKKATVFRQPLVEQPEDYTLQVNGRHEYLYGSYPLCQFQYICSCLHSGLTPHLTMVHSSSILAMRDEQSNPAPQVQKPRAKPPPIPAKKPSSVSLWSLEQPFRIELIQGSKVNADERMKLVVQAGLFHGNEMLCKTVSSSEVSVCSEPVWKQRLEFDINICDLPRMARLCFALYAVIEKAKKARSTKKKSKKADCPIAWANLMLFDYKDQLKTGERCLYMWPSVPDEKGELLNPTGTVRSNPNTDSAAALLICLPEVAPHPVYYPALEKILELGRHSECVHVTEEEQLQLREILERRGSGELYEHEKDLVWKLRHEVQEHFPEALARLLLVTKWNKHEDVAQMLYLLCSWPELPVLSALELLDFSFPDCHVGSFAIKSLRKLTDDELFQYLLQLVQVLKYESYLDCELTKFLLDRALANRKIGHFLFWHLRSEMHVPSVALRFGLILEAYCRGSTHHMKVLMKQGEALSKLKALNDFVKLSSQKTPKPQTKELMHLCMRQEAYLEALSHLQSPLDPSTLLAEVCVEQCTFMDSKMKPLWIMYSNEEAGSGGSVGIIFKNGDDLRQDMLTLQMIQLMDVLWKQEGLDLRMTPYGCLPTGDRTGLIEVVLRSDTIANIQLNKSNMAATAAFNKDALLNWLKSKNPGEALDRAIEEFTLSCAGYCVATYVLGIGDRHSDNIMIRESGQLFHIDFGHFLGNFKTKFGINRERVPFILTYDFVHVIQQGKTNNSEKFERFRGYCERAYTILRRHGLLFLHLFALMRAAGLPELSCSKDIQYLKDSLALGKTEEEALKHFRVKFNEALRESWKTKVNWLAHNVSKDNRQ
# [3] = target: cGMP-inhibited 3',5'-cyclic phosphodiesterase 3A (Homo sapiens, UniProt Q14432); assay: Inhibition of human PDE3A at 10 uM by HTRF assay
# Chain of cGMP-inhibited 3',5'-cyclic phosphodiesterase 3A (Q14432 whole entry, canonical isoform): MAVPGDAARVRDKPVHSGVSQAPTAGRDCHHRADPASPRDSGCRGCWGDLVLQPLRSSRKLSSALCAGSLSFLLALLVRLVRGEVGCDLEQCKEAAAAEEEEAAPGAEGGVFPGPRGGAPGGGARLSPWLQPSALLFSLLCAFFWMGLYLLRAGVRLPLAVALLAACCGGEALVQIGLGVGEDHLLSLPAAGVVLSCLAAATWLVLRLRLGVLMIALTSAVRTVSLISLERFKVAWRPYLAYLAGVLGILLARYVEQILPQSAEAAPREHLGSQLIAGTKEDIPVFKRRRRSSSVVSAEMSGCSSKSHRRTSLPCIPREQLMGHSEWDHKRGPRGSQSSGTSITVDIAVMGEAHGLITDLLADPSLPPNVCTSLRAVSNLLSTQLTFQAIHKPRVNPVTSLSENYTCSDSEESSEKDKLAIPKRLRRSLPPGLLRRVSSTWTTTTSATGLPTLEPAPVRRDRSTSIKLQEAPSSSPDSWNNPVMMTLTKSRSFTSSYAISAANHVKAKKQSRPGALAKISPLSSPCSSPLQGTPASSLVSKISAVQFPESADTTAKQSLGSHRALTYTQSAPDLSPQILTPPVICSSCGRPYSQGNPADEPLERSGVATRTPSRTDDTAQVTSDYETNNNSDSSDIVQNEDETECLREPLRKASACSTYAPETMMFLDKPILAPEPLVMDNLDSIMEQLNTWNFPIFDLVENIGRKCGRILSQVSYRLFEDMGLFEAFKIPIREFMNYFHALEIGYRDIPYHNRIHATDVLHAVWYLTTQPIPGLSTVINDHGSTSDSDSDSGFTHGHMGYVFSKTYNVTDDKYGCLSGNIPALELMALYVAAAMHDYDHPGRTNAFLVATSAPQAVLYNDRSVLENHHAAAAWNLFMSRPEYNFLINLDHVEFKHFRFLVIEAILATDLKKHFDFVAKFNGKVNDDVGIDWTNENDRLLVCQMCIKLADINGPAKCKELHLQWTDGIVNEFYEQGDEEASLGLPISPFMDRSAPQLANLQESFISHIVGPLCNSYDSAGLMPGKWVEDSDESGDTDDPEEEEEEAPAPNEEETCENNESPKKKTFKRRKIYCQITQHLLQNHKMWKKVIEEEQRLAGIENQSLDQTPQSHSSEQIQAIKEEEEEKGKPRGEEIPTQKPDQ
# [4] = target: Phosphatidylinositol 4,5-bisphosphate 3-kinase catalytic subunit gamma isoform (Homo sapiens) (UniProt P48736); assay: Inhibition of wild type PI3K-gamma (unknown origin) assessed as decrease in ATP consumption at 10 uM using phosphotidylinositol bisphosphate and ATP measured after 60 mins by Kinase-Glo reagent based luminescence assay
# Chain of Phosphatidylinositol 4,5-bisphosphate 3-kinase catalytic subunit gamma isoform (Homo sapiens) (P48736 whole entry, looked up, canonical isoform): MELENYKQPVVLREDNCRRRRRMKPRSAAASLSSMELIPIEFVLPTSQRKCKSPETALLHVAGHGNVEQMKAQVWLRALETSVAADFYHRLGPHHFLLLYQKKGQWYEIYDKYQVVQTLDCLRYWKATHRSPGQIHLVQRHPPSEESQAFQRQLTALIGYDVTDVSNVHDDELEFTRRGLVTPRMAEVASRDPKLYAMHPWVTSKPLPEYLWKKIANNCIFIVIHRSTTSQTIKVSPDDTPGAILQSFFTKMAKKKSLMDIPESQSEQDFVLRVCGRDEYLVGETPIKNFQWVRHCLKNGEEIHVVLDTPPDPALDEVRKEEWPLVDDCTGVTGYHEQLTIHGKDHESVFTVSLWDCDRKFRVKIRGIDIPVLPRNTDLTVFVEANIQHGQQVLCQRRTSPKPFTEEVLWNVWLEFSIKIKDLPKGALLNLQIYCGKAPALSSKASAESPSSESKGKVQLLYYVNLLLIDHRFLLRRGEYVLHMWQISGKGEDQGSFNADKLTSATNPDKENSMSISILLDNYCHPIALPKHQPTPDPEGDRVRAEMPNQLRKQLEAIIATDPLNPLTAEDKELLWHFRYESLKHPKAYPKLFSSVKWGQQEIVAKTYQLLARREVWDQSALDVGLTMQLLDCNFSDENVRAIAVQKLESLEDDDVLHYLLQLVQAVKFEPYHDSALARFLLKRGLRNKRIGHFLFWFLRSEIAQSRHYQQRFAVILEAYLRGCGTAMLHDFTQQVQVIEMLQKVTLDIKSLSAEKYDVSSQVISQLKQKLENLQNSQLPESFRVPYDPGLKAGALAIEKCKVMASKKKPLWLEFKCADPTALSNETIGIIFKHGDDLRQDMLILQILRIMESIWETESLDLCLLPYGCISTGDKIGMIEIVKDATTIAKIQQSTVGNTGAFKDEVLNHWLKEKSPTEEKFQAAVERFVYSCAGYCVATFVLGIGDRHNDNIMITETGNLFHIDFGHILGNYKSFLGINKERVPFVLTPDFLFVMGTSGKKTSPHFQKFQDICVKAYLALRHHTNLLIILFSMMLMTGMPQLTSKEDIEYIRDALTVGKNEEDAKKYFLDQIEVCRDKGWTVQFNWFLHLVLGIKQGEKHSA
# [5] = target: Phosphatidylinositol 4,5-bisphosphate 3-kinase catalytic subunit alpha isoform (Homo sapiens) (UniProt P42336); assay: Inhibition of wild type PI3K-alpha (unknown origin) assessed as decrease in ATP consumption at 10 uM using phosphotidylinositol bisphosphate and ATP measured after 60 mins by Kinase-Glo reagent based luminescence assay
# Chain of Phosphatidylinositol 4,5-bisphosphate 3-kinase catalytic subunit alpha isoform (Homo sapiens) (P42336 whole entry, canonical isoform): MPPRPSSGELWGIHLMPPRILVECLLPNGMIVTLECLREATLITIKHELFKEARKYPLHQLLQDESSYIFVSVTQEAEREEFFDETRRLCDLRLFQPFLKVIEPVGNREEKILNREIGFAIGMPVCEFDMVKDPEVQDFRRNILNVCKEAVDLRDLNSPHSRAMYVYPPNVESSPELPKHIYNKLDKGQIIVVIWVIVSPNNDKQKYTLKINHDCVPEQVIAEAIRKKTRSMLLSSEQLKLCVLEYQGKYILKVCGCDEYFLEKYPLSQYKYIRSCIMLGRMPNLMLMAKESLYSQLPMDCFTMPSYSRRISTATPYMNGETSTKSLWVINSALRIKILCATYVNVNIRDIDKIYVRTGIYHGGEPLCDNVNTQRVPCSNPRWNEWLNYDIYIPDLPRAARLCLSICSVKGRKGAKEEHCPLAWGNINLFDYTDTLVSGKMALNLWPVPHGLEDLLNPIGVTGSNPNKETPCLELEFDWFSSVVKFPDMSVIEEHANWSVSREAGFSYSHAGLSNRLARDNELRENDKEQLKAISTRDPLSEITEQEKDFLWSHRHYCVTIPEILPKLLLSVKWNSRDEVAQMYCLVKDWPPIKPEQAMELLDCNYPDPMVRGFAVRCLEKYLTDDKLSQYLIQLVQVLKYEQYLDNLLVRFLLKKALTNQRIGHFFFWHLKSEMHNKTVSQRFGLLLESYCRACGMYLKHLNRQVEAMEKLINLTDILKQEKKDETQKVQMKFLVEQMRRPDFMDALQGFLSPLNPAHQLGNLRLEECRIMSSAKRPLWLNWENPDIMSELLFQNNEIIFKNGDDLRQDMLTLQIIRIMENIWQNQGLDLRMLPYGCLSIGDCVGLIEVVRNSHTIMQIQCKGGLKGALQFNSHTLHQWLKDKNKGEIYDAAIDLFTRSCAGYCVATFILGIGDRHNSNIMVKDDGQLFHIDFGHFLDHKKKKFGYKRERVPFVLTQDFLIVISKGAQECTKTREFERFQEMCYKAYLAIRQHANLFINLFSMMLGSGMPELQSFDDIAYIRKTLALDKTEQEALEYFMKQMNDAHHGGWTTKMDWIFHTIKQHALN
# [6] = target: Phosphatidylinositol 4,5-bisphosphate 3-kinase catalytic subunit beta isoform (Homo sapiens) (UniProt P42338); assay: Inhibition of wild type PI3K-beta (unknown origin) assessed as decrease in ATP consumption at 10 uM using phosphotidylinositol bisphosphate and ATP measured after 60 mins by Kinase-Glo reagent based luminescence assay
# Chain of Phosphatidylinositol 4,5-bisphosphate 3-kinase catalytic subunit beta isoform (Homo sapiens) (P42338 whole entry, looked up, canonical isoform): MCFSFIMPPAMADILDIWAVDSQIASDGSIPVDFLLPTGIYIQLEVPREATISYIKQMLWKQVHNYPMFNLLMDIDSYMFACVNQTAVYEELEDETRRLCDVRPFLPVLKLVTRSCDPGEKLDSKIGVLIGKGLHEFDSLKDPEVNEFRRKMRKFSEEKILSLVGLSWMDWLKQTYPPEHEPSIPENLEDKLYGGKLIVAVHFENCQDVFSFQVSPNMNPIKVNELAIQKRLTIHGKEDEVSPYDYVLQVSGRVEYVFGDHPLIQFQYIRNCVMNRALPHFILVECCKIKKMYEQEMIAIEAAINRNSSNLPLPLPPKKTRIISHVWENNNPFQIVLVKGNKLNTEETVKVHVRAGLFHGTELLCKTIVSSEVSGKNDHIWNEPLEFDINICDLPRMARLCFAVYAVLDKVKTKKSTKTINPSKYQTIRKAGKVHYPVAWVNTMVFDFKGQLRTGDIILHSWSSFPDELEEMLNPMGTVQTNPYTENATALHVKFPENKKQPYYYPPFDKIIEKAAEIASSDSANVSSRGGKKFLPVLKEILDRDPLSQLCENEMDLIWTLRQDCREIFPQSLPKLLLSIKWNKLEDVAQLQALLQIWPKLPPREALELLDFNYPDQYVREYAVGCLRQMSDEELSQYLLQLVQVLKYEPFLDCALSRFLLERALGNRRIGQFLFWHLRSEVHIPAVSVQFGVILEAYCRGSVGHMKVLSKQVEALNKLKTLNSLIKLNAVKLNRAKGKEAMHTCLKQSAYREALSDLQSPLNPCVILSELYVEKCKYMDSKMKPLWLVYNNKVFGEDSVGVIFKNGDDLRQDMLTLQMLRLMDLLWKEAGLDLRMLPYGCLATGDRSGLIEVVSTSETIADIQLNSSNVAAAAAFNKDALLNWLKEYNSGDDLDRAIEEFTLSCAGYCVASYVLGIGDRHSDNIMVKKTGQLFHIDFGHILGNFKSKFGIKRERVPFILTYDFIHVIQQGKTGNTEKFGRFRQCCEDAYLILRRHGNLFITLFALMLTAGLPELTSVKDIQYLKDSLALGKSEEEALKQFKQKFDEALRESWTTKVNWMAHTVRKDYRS
# [7] = target: T2, Phosphatidylinositol 4,5-bisphosphate 3-kinase catalytic subunit delta isoform (Homo sapiens, UniProt O00329); assay: Inhibition of wild type PI3K-delta (unknown origin) assessed as decrease in ATP consumption using phosphotidylinositol bisphosphate and ATP measured after 60 mins by Kinase-Glo reagent based luminescence assay
# T2 sequence (O00329 whole entry): T1 sequence (whole entry)
SMILES,inhibition [1],inhibition [2],inhibition [3],inhibition [4],inhibition [5],inhibition [6],IC50 [7]
O=c1nc(N2CCOCC2)oc2c(-c3cccs3)c(OCc3ccccc3)ccc12,46.1%,9.2%,59.9%,-3.5%,-9.9%,,
CN1CCN(CCOc2ccc3c(=O)nc(N4CCOCC4)oc3c2-c2ccc(Cl)cc2)CC1,11.6%,49.4%,21.8%,1.4%,12.7%,20.3%,
Nc1cccc(-c2c(OCc3ccccc3)ccc3c(=O)nc(N4CCOCC4)oc23)c1,9.1%,63.4%,5.1%,19.8%,31.6%,63.1%,
O=c1nc(N2CCOCC2)oc2c(-c3ccsc3)c(OCc3cccnc3)ccc12,44%,16.6%,61.9%,3.8%,-3.3%,0.3%,
O=c1nc(N2CCOCC2)oc2c(-c3ccccc3)c(OCc3ccncc3)ccc12,15.1%,80.8%,60.1%,8.2%,46.1%,68.1%,5.8 µM
O=c1nc(N2CCOCC2)oc2c(-c3ccc(Cl)cc3)c(OCc3cccnc3)ccc12,32.7%,64.9%,43.6%,20%,34.6%,53.2%,10.1 µM
O=c1nc(N2CCOCC2)oc2c(-c3ccccc3)c(OCc3ccccc3)ccc12,13.6%,58.7%,24%,5.4%,21.3%,29.8%,
COc1ccc(-c2c(OCc3ccncc3)ccc3c(=O)nc(N4CCOCC4)oc23)cc1,33.6%,96.3%,33.5%,,36.2%,53.8%,2.9 µM
O=c1nc(N2CCOCC2)oc2c(-c3cccc4c3oc3ccccc34)c(OCc3ccccc3)ccc12,41.5%,-2.9%,62.9%,-4.1%,,,
O=c1nc(N2CCOCC2)oc2c(-c3ccc(Cl)cc3)c(OCc3ccncc3)ccc12,21.5%,63.3%,56.1%,26.5%,28.7%,56.6%,9.2 µM
O=c1nc(N2CCOCC2)oc2c(-c3ccc(CO)cc3)c(OCc3ccccc3)ccc12,36%,84.7%,18.9%,,39.1%,54.2%,3.07 µM
O=c1nc(N2CCOCC2)oc2c(-c3cccs3)c(OCc3cccnc3)ccc12,38.1%,20.7%,61.8%,1.7%,3.3%,5.3%,
O=c1nc(N2CCOCC2)oc2c(-c3cccc4c3sc3ccccc34)c(OCc3ccccc3)ccc12,64.4%,6.3%,31.2%,,,15.1%,
COc1ccc(-c2c(OCc3ccccc3)ccc3c(=O)nc(N4CCOCC4)oc23)cc1,40%,65.7%,2.8%,-0.5%,0.6%,19.8%,
O=c1nc(N2CCOCC2)oc2c(-c3cccnc3)c(OCc3ccccc3)ccc12,17.2%,34.5%,46.9%,-2.3%,-1.7%,21%,
O=c1nc(N2CCOCC2)oc2c(-c3cccs3)c(OCc3ccncc3)ccc12,39.2%,24%,55.3%,-1.5%,-2.9%,5.4%,
O=c1nc(N2CCOCC2)oc2c(-c3cc4ccccc4s3)c(OCc3ccccc3)ccc12,,1.1%,58.1%,-7.1%,-7.3%,0.4%,
O=c1nc(N2CCOCC2)oc2c(-c3ccccc3)c(OCCBr)ccc12,31.1%,75.9%,24%,-6.4%,40.7%,33.8%,
O=c1nc(N2CCOCC2)oc2c(-c3ccc(Cl)cc3)c(OCc3ccccc3)ccc12,25.7%,27.4%,31.4%,9.8%,0.2%,11%,
O=c1nc(N2CCOCC2)oc2c(-c3ccsc3)c(OCc3ccccc3)ccc12,46.6%,39.5%,38.8%,,4.8%,20.6%,

# More lines, now with the values ahead:
inhibition [1],inhibition [2],inhibition [3],inhibition [4],inhibition [5],inhibition [6],IC50 [7],SMILES
18.1%,73.9%,11.5%,6.23%,40.3%,44.8%,5.68 µM,COc1ccc(-c2c(OCCN3CCN(C)CC3)ccc3c(=O)nc(N4CCOCC4)oc23)cc1
44.4%,88.8%,28%,-8.6%,56.3%,39.7%,2.7 µM,COc1ccc(-c2c(OCCBr)ccc3c(=O)nc(N4CCOCC4)oc23)cc1
27%,62.1%,63.3%,23.5%,28.6%,48.8%,14.7 µM,O=c1nc(N2CCOCC2)oc2c(-c3ccc(Cl)cc3)c(OCc3ccccn3)ccc12
10.1%,9.7%,43.6%,-5.5%,,-5.5%,,Nc1cccc(-c2c(OCc3ccncc3)ccc3c(=O)nc(N4CCOCC4)oc23)c1
7.3%,47.6%,20%,6.4%,16.2%,65.5%,,Nc1cccc(-c2c(OCc3ccccn3)ccc3c(=O)nc(N4CCOCC4)oc23)c1
31%,53.6%,11.3%,,-6.1%,7.6%,,O=c1nc(N2CCOCC2)oc2c(-c3ccc(Cl)cc3)c(OCCBr)ccc12
32.8%,72.2%,55.3%,7.7%,21.4%,53.6%,,O=c1nc(N2CCOCC2)oc2c(-c3ccsc3)c(OCc3ccncc3)ccc12
9.8%,41.9%,,-6.9%,18.4%,28.2%,,Nc1cccc(-c2c(OCc3cccnc3)ccc3c(=O)nc(N4CCOCC4)oc23)c1
4.07%,9.5%,51.3%,,,4.67%,,O=c1nc(N2CCOCC2)oc2c(-c3cccc4ccccc34)c(OCc3ccccc3)ccc12
8.7%,27.2%,51.6%,0.2%,,,,O=c1nc(N2CCOCC2)oc2c(-c3cc4ccccc4s3)c(OCc3ccncc3)ccc12
-1.7%,-1%,27.3%,,,0.6%,,O=c1nc(N2CCOCC2)oc2c(-c3cccc4c3Sc3ccccc3S4)c(OCc3ccccc3)ccc12
